Legend:
[1] = target: T1, Doublecortin-like kinase 1 (DCLK1) (Homo sapiens, UniProt O15075); assay: in vitro kinase assay (Kinase-Glo luminescence) with purified active DCLK1, autocamtide II substrate and […] ATP; assay type: biochemical
T1 sequence (O15075 1-740): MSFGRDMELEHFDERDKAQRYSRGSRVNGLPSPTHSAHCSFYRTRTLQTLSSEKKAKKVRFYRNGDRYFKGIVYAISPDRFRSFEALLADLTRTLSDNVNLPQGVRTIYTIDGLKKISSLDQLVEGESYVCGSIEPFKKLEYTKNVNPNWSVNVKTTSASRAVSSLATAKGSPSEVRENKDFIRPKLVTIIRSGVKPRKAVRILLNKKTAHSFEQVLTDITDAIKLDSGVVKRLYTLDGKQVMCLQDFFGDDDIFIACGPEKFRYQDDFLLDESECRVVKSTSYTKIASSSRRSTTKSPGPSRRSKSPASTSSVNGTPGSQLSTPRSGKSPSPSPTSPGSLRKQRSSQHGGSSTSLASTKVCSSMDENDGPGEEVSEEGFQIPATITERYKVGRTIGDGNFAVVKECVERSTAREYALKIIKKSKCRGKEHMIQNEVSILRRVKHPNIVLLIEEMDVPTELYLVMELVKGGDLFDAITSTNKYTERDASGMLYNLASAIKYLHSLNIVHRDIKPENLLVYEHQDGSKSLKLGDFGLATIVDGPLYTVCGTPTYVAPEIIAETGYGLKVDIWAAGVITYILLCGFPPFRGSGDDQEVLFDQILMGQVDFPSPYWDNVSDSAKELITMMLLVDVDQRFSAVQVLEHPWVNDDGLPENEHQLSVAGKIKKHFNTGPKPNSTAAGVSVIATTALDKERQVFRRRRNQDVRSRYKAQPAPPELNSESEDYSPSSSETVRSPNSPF

[2] = system: HT-29; assay: cells; design: MTT proliferation assay, sigmoidal dose-response fit, colon and pancreatic cancer cell lines; conditions: Homo sapiens, HT-29; 48 h MTT
[3] = system: SW1990; assay: cells; design: MTT proliferation assay, sigmoidal dose-response fit, colon and pancreatic cancer cell lines; conditions: Homo sapiens, SW1990; 48 h MTT
[4] = system: DLD-1; assay: cells; design: MTT proliferation assay, sigmoidal dose-response fit, colon and pancreatic cancer cell lines; conditions: Homo sapiens, DLD-1; 48 h MTT
[5] = system: MiaPaCa-2; assay: cells; design: MTT proliferation assay, sigmoidal dose-response fit, colon and pancreatic cancer cell lines; conditions: Homo sapiens, MIA PaCa-2; 48 h MTT

COc1cc(C(=O)N2CCC(N3CCN(C)CC3)CC2)ccc1Nc1ncc2c(n1)N(C)c1ccccc1C(=O)N2C [LRRK2-IN-1]
IC50 [1]: 0.00261 µM
IC50 [2]: 2.07 µM
IC50 [3]: 5.19 µM
IC50 [4]: 3.22 µM
IC50 [5]: 2.01 µM
